Laboratory results reported in ChEMBL document CHEMBL3885881, “DrugMatrix”.

Species: Rattus norvegicus
Experiment: DrugMatrix - Regimen: Daily Repeat
Assay type: toxicity, organism-based, Sprague-Dawley
Design: regimen Daily Repeat, gender Male, age 6-8 weeks
Conditions: in vivo, po, route oral GAVAGE, […]; for ABSOLUTE BASOPHIL / BASOPHIL / ABSOLUTE EOSINOPHIL / ABSOLUTE LYMPHOCYTE / ABSOLUTE MONOCYTE / ABSOLUTE SEGMENTED NEUTROPHIL / EOSINOPHIL / ERYTHROCYTE COUNT / HEMATOCRIT / HEMOGLOBIN / LEUKOCYTE COUNT / LYMPHOCYTE / MEAN CORPUSCULAR HEMOGLOBIN / MEAN CORPUSCULAR HEMOGLOBIN CONCENTRATION / MEAN CORPUSCULAR VOLUME / MONOCYTE / NEUTROPHIL / NUCLEATED RED BLOOD CELLS / PLATELET COUNT: tissue Blood; for ALANINE AMINOTRANSFERASE / ALBUMIN / ALKALINE PHOSPHATASE / ASPARTATE AMINOTRANSFERASE / BLOOD UREA NITROGEN / CARBON DIOXIDE / CHOLESTEROL / CREATINE PHOSPHOKINASE / CREATININE / GLUCOSE / LACTATE DEHYDROGENASE / LIPASE / TOTAL BILIRUBIN / TOTAL PROTEIN / URIC ACID: tissue Plasma
[1] = 0 mg/kg, 72 h, dose level Control, time 3 day
[2] = 0 mg/kg, 120 h, dose level Control, time 5 day
[3] = 10 mg/kg, 72 h, dose level M1, time 3 day
[4] = 10 mg/kg, 120 h, dose level M1, time 5 day
[5] = 32 mg/kg, 72 h, dose level M2, time 3 day
[6] = 32 mg/kg, 120 h, dose level M2, time 5 day

With `CC/C(=C(\c1ccccc1)c1ccc(OCCN(C)C)cc1)c1ccccc1` [TAMOXIFEN] the “ABSOLUTE BASOPHIL” value [1] was 0 CELLS/uL, the BASOPHIL [1] was 0% and the “ABSOLUTE BASOPHIL” value [2] was 0 CELLS/uL. The BASOPHIL [2] was 0%, the “ABSOLUTE BASOPHIL” value [3] was 0 CELLS/uL and the “ABSOLUTE EOSINOPHIL” value [3] was 39 CELLS/uL. For the same compound, the “ABSOLUTE LYMPHOCYTE” value [3] was 8296.33 CELLS/uL, the “ABSOLUTE MONOCYTE” value [3] was 168.33 CELLS/uL and the “ABSOLUTE SEGMENTED NEUTROPHIL” value [3] was 529.67 CELLS/uL. For the same compound, the BASOPHIL [3] was 0%, the EOSINOPHIL [3] was 0.33% and the “ERYTHROCYTE COUNT” value [3] was 5.69 x10E6/uL. For the same compound, the HEMATOCRIT [3] was 36.07%, the HEMOGLOBIN [3] was 13.53 G/DL and the “LEUKOCYTE COUNT” value [3] was 9.03 x10E3/uL. The LYMPHOCYTE [3] was 92.33%, the “MEAN CORPUSCULAR HEMOGLOBIN” value [3] was 23.9 pg and the “MEAN CORPUSCULAR HEMOGLOBIN CONCENTRATION” value [3] was 37.57 G/DL. For the same compound, the “MEAN CORPUSCULAR VOLUME” value [3] was 63.63 fL, the MONOCYTE [3] was 1.67% and the NEUTROPHIL [3] was 5.67%. For the same compound, the “NUCLEATED RED BLOOD CELLS” value [3] was 0 /100WBC, the “PLATELET COUNT” value [3] was 1296.33 x10E3/uL and the “ALANINE AMINOTRANSFERASE” value [3] was 62.67 u/L. The ALBUMIN [3] was 4 G/DL, the “ALKALINE PHOSPHATASE” value [3] was 415 u/L and the “ASPARTATE AMINOTRANSFERASE” value [3] was 79.33 u/L. For the same compound, the “BLOOD UREA NITROGEN” value [3] was 9.67 mg/dL, the “CARBON DIOXIDE” value [3] was 28.33 mmol/L and the CHOLESTEROL [3] was 52.67 mg/dL. For the same compound, the “CREATINE PHOSPHOKINASE” value [3] was 228 u/L, the CREATININE [3] was 0.2 mg/dL and the GLUCOSE [3] was 179 mg/dL. The “LACTATE DEHYDROGENASE” value [3] was 97.33 u/L, the LIPASE [3] was 9.33 u/L and the “TOTAL BILIRUBIN” value [3] was 0.13 mg/dL. For the same compound, the “TOTAL PROTEIN” value [3] was 5.57 G/DL, the “URIC ACID” value [3] was 1.9 mg/dL and the “ABSOLUTE BASOPHIL” value [4] was 0 CELLS/uL. For the same compound, the “ABSOLUTE EOSINOPHIL” value [4] was 119.33 CELLS/uL, the “ABSOLUTE LYMPHOCYTE” value [4] was 10935 CELLS/uL and the “ABSOLUTE MONOCYTE” value [4] was 173 CELLS/uL. The “ABSOLUTE SEGMENTED NEUTROPHIL” value [4] was 706 CELLS/uL, the BASOPHIL [4] was 0% and the EOSINOPHIL [4] was 1%. The “ERYTHROCYTE COUNT” value [4] was 6.34 x10E6/uL, the HEMATOCRIT [4] was 39.5% and the HEMOGLOBIN [4] was 15 G/DL. For the same compound, the “LEUKOCYTE COUNT” value [4] was 11.93 x10E3/uL, the LYMPHOCYTE [4] was 91.67% and the “MEAN CORPUSCULAR HEMOGLOBIN” value [4] was 23.67 pg. For the same compound, the “MEAN CORPUSCULAR HEMOGLOBIN CONCENTRATION” value [4] was 37.97 G/DL, the “MEAN CORPUSCULAR VOLUME” value [4] was 62.37 fL and the MONOCYTE [4] was 1.33%. The NEUTROPHIL [4] was 6%, the “NUCLEATED RED BLOOD CELLS” value [4] was 0 /100WBC and the “PLATELET COUNT” value [4] was 1194 x10E3/uL. The “ALANINE AMINOTRANSFERASE” value [4] was 55.67 u/L, the ALBUMIN [4] was 4.53 G/DL and the “ALKALINE PHOSPHATASE” value [4] was 463 u/L. For the same compound, the “ASPARTATE AMINOTRANSFERASE” value [4] was 84 u/L, the “BLOOD UREA NITROGEN” value [4] was 10.33 mg/dL and the “CARBON DIOXIDE” value [4] was 27 mmol/L. For the same compound, the CHOLESTEROL [4] was 49.33 mg/dL, the “CREATINE PHOSPHOKINASE” value [4] was 234 u/L and the CREATININE [4] was 0.24 mg/dL. The GLUCOSE [4] was 120 mg/dL, the “LACTATE DEHYDROGENASE” value [4] was 120 u/L and the LIPASE [4] was 9.33 u/L. The “TOTAL BILIRUBIN” value [4] was 0.1 mg/dL, the “TOTAL PROTEIN” value [4] was 6.33 G/DL and the “URIC ACID” value [4] was 2.4 mg/dL. The “ABSOLUTE BASOPHIL” value [5] was 0 CELLS/uL, the “ABSOLUTE EOSINOPHIL” value [5] was 54 CELLS/uL and the “ABSOLUTE LYMPHOCYTE” value [5] was 12289.67 CELLS/uL. For the same compound, the “ABSOLUTE MONOCYTE” value [5] was 92.33 CELLS/uL, the “ABSOLUTE SEGMENTED NEUTROPHIL” value [5] was 964 CELLS/uL and the BASOPHIL [5] was 0%. The EOSINOPHIL [5] was 0.33%, the “ERYTHROCYTE COUNT” value [5] was 6.02 x10E6/uL and the HEMATOCRIT [5] was 39.07%. The HEMOGLOBIN [5] was 14.67 G/DL, the “LEUKOCYTE COUNT” value [5] was 13.4 x10E3/uL and the LYMPHOCYTE [5] was 91.67%. For the same compound, the “MEAN CORPUSCULAR HEMOGLOBIN” value [5] was 24.4 pg, the “MEAN CORPUSCULAR HEMOGLOBIN CONCENTRATION” value [5] was 37.53 G/DL and the “MEAN CORPUSCULAR VOLUME” value [5] was 64.97 fL. The MONOCYTE [5] was 0.67%, the NEUTROPHIL [5] was 7.33% and the “NUCLEATED RED BLOOD CELLS” value [5] was 0 /100WBC. The “PLATELET COUNT” value [5] was 1258 x10E3/uL, the “ALANINE AMINOTRANSFERASE” value [5] was 66.67 u/L and the ALBUMIN [5] was 4.63 G/DL. For the same compound, the “ALKALINE PHOSPHATASE” value [5] was 371.33 u/L, the “ASPARTATE AMINOTRANSFERASE” value [5] was 106.67 u/L and the “BLOOD UREA NITROGEN” value [5] was 5.67 mg/dL. For the same compound, the “CARBON DIOXIDE” value [5] was 26.33 mmol/L, the CHOLESTEROL [5] was 43.33 mg/dL and the “CREATINE PHOSPHOKINASE” value [5] was 723.67 u/L. For the same compound, the CREATININE [5] was 0.2 mg/dL, the GLUCOSE [5] was 150.33 mg/dL and the “LACTATE DEHYDROGENASE” value [5] was 184.33 u/L. For the same compound, the LIPASE [5] was 9.33 u/L, the “TOTAL BILIRUBIN” value [5] was 0.1 mg/dL and the “TOTAL PROTEIN” value [5] was 6.03 G/DL. For the same compound, the “URIC ACID” value [5] was 2.5 mg/dL, the “ABSOLUTE BASOPHIL” value [6] was 0 CELLS/uL and the “ABSOLUTE EOSINOPHIL” value [6] was 0 CELLS/uL. For the same compound, the “ABSOLUTE LYMPHOCYTE” value [6] was 12430.67 CELLS/uL, the “ABSOLUTE MONOCYTE” value [6] was 227.33 CELLS/uL and the “ABSOLUTE SEGMENTED NEUTROPHIL” value [6] was 2075.33 CELLS/uL. For the same compound, the BASOPHIL [6] was 0%, the EOSINOPHIL [6] was 0% and the “ERYTHROCYTE COUNT” value [6] was 6.29 x10E6/uL. For the same compound, the HEMATOCRIT [6] was 39.17%, the HEMOGLOBIN [6] was 14.9 G/DL and the “LEUKOCYTE COUNT” value [6] was 14.73 x10E3/uL. For the same compound, the LYMPHOCYTE [6] was 84.33%, the “MEAN CORPUSCULAR HEMOGLOBIN” value [6] was 23.7 pg and the “MEAN CORPUSCULAR HEMOGLOBIN CONCENTRATION” value [6] was 38.07 G/DL. For the same compound, the “MEAN CORPUSCULAR VOLUME” value [6] was 62.27 fL, the MONOCYTE [6] was 1.67% and the NEUTROPHIL [6] was 14%. The “NUCLEATED RED BLOOD CELLS” value [6] was 0 /100WBC, the “PLATELET COUNT” value [6] was 1261.33 x10E3/uL and the “ALANINE AMINOTRANSFERASE” value [6] was 65.67 u/L. For the same compound, the ALBUMIN [6] was 4.73 G/DL, the “ALKALINE PHOSPHATASE” value [6] was 464.33 u/L and the “ASPARTATE AMINOTRANSFERASE” value [6] was 99 u/L. The “BLOOD UREA NITROGEN” value [6] was 11.33 mg/dL, the “CARBON DIOXIDE” value [6] was 27.33 mmol/L and the CHOLESTEROL [6] was 40.33 mg/dL. For the same compound, the “CREATINE PHOSPHOKINASE” value [6] was 288.67 u/L, the CREATININE [6] was 0.23 mg/dL and the GLUCOSE [6] was 136.67 mg/dL. The “LACTATE DEHYDROGENASE” value [6] was 164.33 u/L, the LIPASE [6] was 9.67 u/L and the “TOTAL BILIRUBIN” value [6] was 0.1 mg/dL.
